Converted amounts (≈) assume the structure as drawn.
Tests used:
[1] = cited from earlier work
[2] = Solubility of Lumogen F dyes in organic solvents (toluene); assay type: physicochemical; settings: organic solvent or mixture
[3] = Methanol solubility of LR versus non-polar crude oil fractions; assay type: physicochemical; settings: non-polar crude oil fractions showed poor MeOH solubility
Excerpt: To enhance the detection sensitivity further for LR, the fluorescent non-polar fractions of crude oil coeluted with LR during the chromatography may be removed or partially removed from the resulting effluent mixtures. While the polar components of crude oil can be effectively separated using the gravity column chromatography over silica gel with 100% DCM, the separation of the non-polar crude oil components remains a challenge because of its similar polarity with LR, identified by the Rf value on TLC. Therefore, explored was the second step of purification and isolation of the product by utilizing the solubility difference between LR and the non-polar crude oil components. […] Therefore, in subsequent work, DCM from the resulting effluent was evaporated and then the dark viscous residues were re-dissolved in 1 mL of MeOH followed by sonication for 30 seconds.

| SMILES | solubility in organic solvents [1] | solubility [2] | other results |
| --- | --- | --- | --- |
| COc1cc(/C=C/C(=O)CC(=O)/C=C/c2ccc(O)c(OC)c2)ccc1O [curcumin] | soluble |  |  |
| CCN(CC)c1ccc2nc3c4ccccc4c(=O)cc-3oc2c1 [NR, Nile Red] |  |  | solubility in organic solvents such as DCM and toluene ([1]; DCM, toluene): highly soluble |
| CC(C)COC(=O)c1ccc2c3ccc(C#N)c4c(C(=O)OCC(C)C)ccc(c5ccc(C#N)c1c52)c43 [LY, bis(2-methylpropyl) 4,10-dicyanoperylene-3,9-dicarboxylate] |  | < 1000 µg/mL |  |
| CC(C)c1cccc(C(C)C)c1N1C(=O)c2cc(Oc3ccccc3)c3c4c(Oc5ccccc5)cc5c6c(cc(Oc7ccccc7)c(c7c(Oc8ccccc8)cc(c2c37)C1=O)c64)C(=O)N(c1c(C(C)C)cccc1C(C)C)C5=O [LR, 7,18-bis[2,6-di(propan-2-yl)phenyl]-11,14,22,26-tetraphenoxy-7,18-diazaheptacyclo[14.6.2.2^2,5.0^3,12.0^4,9.0^13,23.0^20,24]hexacosa-1(22),2(26),3,5(25),9,11,13,15,20,23-decaene-6,8,17,19-tetrone] |  | 80000 µg/mL (≈ 74.1 mM) | solubility in methanol (MeOH) [3]: moderately soluble |
| CC[N+](CC)=c1ccc2nc3c(cc(N)c4ccccc43)oc-2c1 [NB, Nile Blue] | relatively low |  | solubility in water ([1]; water): highly soluble |
| CCCCC(CC)CN1C(=O)c2ccc(OC)c3c(OC)ccc(c23)C1=O (centres unmarked) [LV, 2-(2-ethylhexyl)-6,7-dimethoxybenzo[de]isoquinoline-1,3-dione] |  | 10000 µg/mL (≈ 27.1 mM) |  |
